# Source: patent US9211310B2, “Use of a Chinese medicine composition in preparing medicaments for treating secondary prevention of myocardial infarction” (TASLY PHARMACEUTICAL GROUP CO., LTD, priority 2010, dated 2015)
# System: patients after acute myocardial infarction
# Assay: Life quality, Seattle Angina Questionnaire (SAQ), same clinical trial
# Type: in vivo, human
# Conditions: PP
# From the text: 3508 patients who were in accordance with the diagnostic standards of AMI for 28 days to 2 years and differentiated as Qi deficiency and blood stagnation syndrome by TCM were studied. 0.5 g Chinese medicine composition prepared by the method of EXAMPLE 1 (Coded as QSYQ) was administrated half an hour after meal, 3 times per day.
# There were 19 questions in the Seattle angina questionnaire (SAQ), including 5 parts: physical limitation (PL), anginal stability (AS), anginal frequency (AF), treatment satisfaction (TS) and disease perception (DP). After being given necessary explanation by doctors, the questions were answered independently by patients.
# They included the overall survival time, angina pectoris score, TCM symptom score and life quality score, where angina pectoris score, TCM symptom score and life quality score were evaluated at randomization, in 1st, 3rd, 6th, 9th, 12th month after treatment and 18th month after follow-up.
# All evaluation results of SAQ were described during the period of observation, and Wilcoxon rank sum test was used for inter-group comparison.
# The evaluation results in the SAQ were depicted in different observations, and inter-group comparison was tested by Wilcoxon Rank-sum test.
smiles,measurement,setting,value
"CC(=O)Oc1ccccc1C(=O)O [Control group, aspirine]","SAQ Question 1-2 Severely limited, percent of patients",12 months after treatment,(0.00%)
same,"SAQ Question 1-2 Slightly limited, number of patients",12 months after treatment,45
same,"SAQ Question 1-2 Slightly limited, percent of patients",12 months after treatment,(3.16%)
same,"SAQ Question 1-6: Mildly limited, patients (%)",12 months after treatment,(13.45%)
same,"SAQ Question 1-6: Moderately limited, patients (%)",12 months after treatment,(9.58%)
same,"SAQ Question 1-6: Not limited, patients (%)",12 months after treatment,(42.39%)
same,"SAQ Question 1-6: Other reasons, patients (%)",12 months after treatment,(0.92%)
same,"SAQ Question 1-6: Severely limited, patients (%)",12 months after treatment,(1.76%)
same,"SAQ Question 1-6: Slightly limited, patients (%)",12 months after treatment,(31.90%)
same,"SAQ Question 1-7: Mildly limited, patients (%)",12 months after treatment,(20.24%)
same,"SAQ Question 1-7: Moderately limited, patients (%)",12 months after treatment,(9.84%)
same,"SAQ Question 1-7: Not limited, patients (%)",12 months after treatment,(21.81%)
same,"SAQ Question 1-7: Other limited, patients (%)",12 months after treatment,(3.56%)
same,"SAQ Question 1-7: Severely limited, patients (%)",12 months after treatment,(12.05%)
same,"SAQ Question 1-7: Slightly limited, patients (%)",12 months after treatment,(32.50%)
same,"SAQ Question 1-8: Mildly limited, patients (%)",12 months after treatment,(24.98%)
same,"SAQ Question 1-8: Moderately limited, patients (%)",12 months after treatment,(12.17%)
same,"SAQ Question 1-8: Not limited, patients (%)",12 months after treatment,(14.53%)
same,"SAQ Question 1-8: Other reasons, patients (%)",12 months after treatment,(4.22%)
same,"SAQ Question 1-8: Severely limited, patients (%)",12 months after treatment,(15.68%)
same,"SAQ Question 1-8: Slightly limited, patients (%)",12 months after treatment,(28.42%)
same,"8th question: Dissatisfied, patients (%)",Baseline,(0.87%)
same,"8th question: Highly satisfied, patients (%)",Baseline,(14.83%)
same,"8th question: Mostly dissatisfied, patients (%)",Baseline,(6.61%)
same,"8th question: Mostly satisfied, patients (%)",Baseline,(45.16%)
same,"8th question: Partly satisfied, patients (%)",Baseline,(32.53%)
same,"9th question: Few, patients (%)",Baseline,(20.91%)
same,"9th question: Mild, patients (%)",Baseline,(37.01%)
same,"9th question: Moderate, patients (%)",Baseline,(26.99%)
same,"9th question: Severe, patients (%)",Baseline,(3.34%)
same,"9th question: Uneffective, patients (%)",Baseline,(11.76%)
same,"10th question: Dissatisfied, patients (%)",Baseline,(25.25%)
same,"10th question: Highly satisfied, patients (%)",Baseline,(2.07%)
same,"10th question: Mostly dissatisfied, patients (%)",Baseline,(24.11%)
same,"10th question: Mostly satisfied, patients (%)",Baseline,(16.30%)
same,"10th question: Partly satisfied, patients (%)",Baseline,(32.26%)
same,"11th question: Continuously worried, patients (%)",Baseline,(9.21%)
same,"11th question: No worried, patients (%)",Baseline,(3.94%)
same,"11th question: Occasionally worried, patients (%)",Baseline,(41.32%)
same,"11th question: Often worried, patients (%)",Baseline,(25.10%)
same,"11th question: Seldom worried, patients (%)",Baseline,(20.43%)
same,"SAQ 4th question, 1-2 times per week: % of patients",Baseline,(20.17%)
same,"SAQ 4th question, 1-2 times per week: number of patients",Baseline,301
same,"SAQ 4th question, 1-3 times per day: % of patients",Baseline,(8.78%)
same,"SAQ 4th question, 1-3 times per day: number of patients",Baseline,131
same,"SAQ 4th question, <1 time per week: % of patients",Baseline,(9.52%)
same,"SAQ 4th question, <1 time per week: number of patients",Baseline,142
same,"SAQ 4th question, Not used: % of patients",Baseline,(43.16%)
same,"SAQ 4th question, Not used: number of patients",Baseline,644
same,"SAQ 4th question, ≧3 times per week: % of patients",Baseline,(17.43%)
same,"SAQ 4th question, ≧3 times per week: number of patients",Baseline,260
same,"SAQ 4th question, ≧4 times per day: % of patients",Baseline,(0.94%)
same,"SAQ 4th question, ≧4 times per day: number of patients",Baseline,14
same,"SAQ 5th question, Few: % of patients",Baseline,(19.21%)
same,"SAQ 5th question, Few: number of patients",Baseline,287
same,"SAQ 5th question, Mild: % of patients",Baseline,(31.26%)
same,"SAQ 5th question, Mild: number of patients",Baseline,467
same,"SAQ 5th question, Moderate: % of patients",Baseline,(21.29%)
same,"SAQ 5th question, Moderate: number of patients",Baseline,318
same,"SAQ 5th question, None: % of patients",Baseline,(22.02%)
same,"SAQ 5th question, None: number of patients",Baseline,329
same,"SAQ 5th question, Not medicated by doctors: % of patients",Baseline,(3.01%)
same,"SAQ 5th question, Not medicated by doctors: number of patients",Baseline,45
same,"SAQ 5th question, Severe: % of patients",Baseline,(3.21%)
same,"SAQ 5th question, Severe: number of patients",Baseline,48
same,"SAQ 6th question, Dissatisfied: % of patients",Baseline,(1.14%)
same,"SAQ 6th question, Dissatisfied: number of patients",Baseline,17
same,"SAQ 6th question, Highly satisfied: % of patients",Baseline,(14.90%)
same,"SAQ 6th question, Highly satisfied: number of patients",Baseline,223
same,"SAQ 6th question, Mostly dissatisfied: % of patients",Baseline,(6.48%)
same,"SAQ 6th question, Mostly dissatisfied: number of patients",Baseline,97
same,"SAQ 6th question, Mostly satisfied: % of patients",Baseline,(44.29%)
same,"SAQ 6th question, Mostly satisfied: number of patients",Baseline,663
same,"SAQ 6th question, Partly satisfied: % of patients",Baseline,(33.20%)
same,"SAQ 6th question, Partly satisfied: number of patients",Baseline,497
same,"SAQ 7th question, Dissatisfied: % of patients",Baseline,(0.33%)
same,"SAQ 7th question, Dissatisfied: number of patients",Baseline,5
